Data from patent publication US5177015A, “Onco-developmentally regulated α-N-acetylgalactosaminyltransferase” (Fred Hutchinson Cancer Research Centre, priority 1992, dated 1993).
Ends that are not written are not given here.

Legend:
[1] = test system: onco-developmentally regulated α-N-acetylgalactosaminyltransferase; test: Solubilization of the enzyme with detergents; assay type: biochemical, human
Excerpt: The particulate membrane fraction can be prepared according to the method of Holmes, E. H. et al. ((1985) J. Biol. Chem. 260, 7619-7627).

[2] = test system: onco-developmentally regulated α-N-acetylgalactosaminyltransferase (HUH-7 homogenate); details: 1 mM EDTA, 25 mM Tris buffer, pH 7.6
Protocol: In the present case, the requirement for metal ion for the onco-developmentally regulated α-N-acetylgalactosaminyltransferase was determined in 25 mM Tris buffer, pH 7.6, supplemented with 20 mM MnCl2, 10 mM MgCl2, 1 mM CaCl2 and combinations of two of these or 1 mM EDTA.
Hepatoma cell (HUH-7) homogenates and the synthetic and natural peptides set forth in the Table in Example 1 were prepared as in Example 1 and incubated as described in Example 1 using 25 mM Tris buffer, pH 7.6; supplemented with 20 mM MnCl2, 10 mM MgCl2, 1 mM CaCl2 and combinations of two of these or 1 mM EDTA.

[3] = test system: onco-developmentally regulated α-N-acetylgalactosaminyltransferase (hepatoma cell homogenate); test: Effect of UDP-GalNAc concentration (Hanes-Woolf plot of saturation data); assay type: biochemical, human; details: UDP-GalNAc 0.6 μM to 200 μM, 200 nmol TPI, read-out: apparent Km for UDP-GalNAc
Protocol: B. Effect of UDP-GalNAc concentration. A Hanes-Woolf plot of saturation data was obtained by varying UDP-GalNAc concentration from 0.6 μM to 200 μM. The reaction was conducted as described in Example 2 in the presence of 100 mg protein and 200 nmol TPI. The specific activity of UDP[^3 H]-GalNAc utilized was 4×10^6 cpm/nmol.
The apparent Km for UDP-GalNAc can be determined by generating a Hanes-Woolf plot of saturation data obtained by varying the UDP-GalNAc concentration at a constant cellular or tissue protein concentration and a constant substrate concentration. A preferred substrate for this assay is TPI.
A Hanes-Woolf plot of saturation data was obtained by varying UDP-GalNAc concentration from 0.6 μM to 200 μM. The reaction as conducted as described in Example 1 in the presence of 100 mg protein of hepatoma cell homogenate and 200 nmol TPI. The specific activity of the UDP[^3 H]-GalNAc used was 4×10^6 cpm/nmol. The reacted samples were also treated as described in Example 1.

[4] = test system: α-N-acetylgalactosaminyltransferase in crude homogenates of human hepatoma cells (HUH-7); test: Specific activity of α-N-acetylgalactosaminyltransferase toward various acceptors; assay type: biochemical; details: 200 nmol acceptor, HUH-7 homogenate, 25 mM Tris, 10 mM MgCl2, 1 mM CaCl2, pH 7.6, 2 hrs at 37° C., FDC-6 immunoaffinity
Protocol: 8×10^7 hepatoma cells (HUH-7) cultured in serum-free medium (Dulbecco-Modified Eagles Medium) were homogenized in a Potter-Elvehjem homogenizer with 200 μl of distilled water. 300 μl of tris buffer solution, consisting of 25 mM tris, 10 mM MgCl2 and 1 mM CaCl2, pH 7.6, was added. 0.3 nmol UDP[^3 H]-GalNAc (specific activity 8.7 Ci/mmol, New England Nuclear Research Product) and 25 nmol UDP-GalNAc were added and incubated for 2 hrs at 37° C. The incubation mixture was centrifuged at 10,000 rpm for 30 min. Supernatant was applied onto a 0.5 ml Sepharose 4B precolumn, followed by a 0.5 ml FDC-6 immunoaffinity column containing 10 mg of purified FDC-6 antibody/ml as described by Matsuura, H. et al. ((1988) J. Biol. Chem. 263, 3314-3322). Immunoprecipitation using 200 μl of FDC-6 binding Sepharose 4B was also performed as described by Bigler R. D. et al ((1988) J. Immunol. 144 21). Supernatants were incubated for 1 hr at 20° C. The column or immunoprecipitate was washed with 1M NaCl in 50 mM Tris buffer, pH 7.4, and eluted with 2.5M potassium thiocyanate in the same buffer solution. The eluate and washings were pooled and aliquots were counted. The same incubation mixture without addition of synthetic peptides or FN was used as a control.

[5] = test system: onco-developmentally regulated α-N-acetylgalactosaminyltransferase (HUH-7 homogenate); test: Variation of incubation time (kinetics of α-GalNAc transfer to synthetic peptide); assay type: biochemical, human; details: 200 nmol TPI, Tris pH 7.6, 37°, incubated 10 min. to 24 hours
Protocol: C. Variation of incubation time. The standard reaction mixture described in Example 1 using TPI was incubated for 10 min to 24 hr. open circles, with TPI; closed circles, without TPI (control).
In order to determine the kinetics of α-GalNAc transfer to synthetic peptide, a reaction mixture containing 12.5 μmol Tris, pH 7.6, 200 nmol TPI, 0.3 nmol UDP[^3 H]-GalNAc, 25 nmol UDP-GalNAc, 5 μmol MgCl2, 0.5 μmol CaCl2 and homogenized hepatoma cells (HUH-7) was incubated for 10 min. to 24 hours at 37°. A parallel control was run without TPI. At the end of the incubation periods, the samples were treated as described in Example 1.

C[C@H](CCC(=O)NCCC[N+](C)(C)CC(O)CS(=O)(=O)[O-])[C@H]1CC[C@H]2[C@@H]3[C@H](O)C[C@@H]4C[C@H](O)CC[C@]4(C)[C@H]3C[C@H](O)[C@]12C (some centres unmarked) [CHAPSO, 3-(3-cholamidopropyldimethylammonio)-1-(20-hydroxy-1-propanesulfonate)]
Effect of solubilization with detergent on enzyme activity [1]: does not enhance enzyme activity

O=C(O)CN(CCN(CC(=O)O)CC(=O)O)CC(=O)O [EDTA]
Enzyme activity in the presence of EDTA [2]: totally abolished

CC(=O)NC1C(OP(=O)(O)OP(=O)(O)OCC2OC(n3ccc(=O)[nH]c3=O)C(O)C2O)OC(CO)C(O)C1O (centres unmarked) [UDP-GalNAc]
Km [3]: ~48 µM

Triton X-100
Effect of solubilization with detergent on enzyme activity [1]: does not enhance enzyme activity

VTHPGY [VTY, val-thr-his-pro-gly-tyr]
Activity (specific activity of the enzyme to the acceptor) [4]: 0.03 pmol/hr/mg protein

thr-pro-phe-val-thr-his-pro-gly-tyr-asp-thr-gly-asn-gly-ile (TPFVTHPGYDTGNGI) [TPI]
Time over which α-GalNAc transfer to synthetic peptide is linear [5]: about 2 hours
Activity (specific activity of the enzyme to the acceptor) [4]: 0.11 pmol/hr/mg protein

thr-pro-phe-val-thr-his-pro-gly-tyr-asp-thr-gly-asn-gly-ile-gln-leu-pro-gly-thr-ser-gly-gln-gln-pro-ser-val-gly-gln-gln (TPFVTHPGYDTGNGIQLPGTSGQQPSVGQQ) [TPQ]
Activity (specific activity of the enzyme to the acceptor) [4]: 0.06 pmol/hr/mg protein
